Measurements taken from patent US8901308B2, “Triazole compounds that modulate Hsp90 activity” (Synta Pharmaceuticals Corp., priority 2004, dated 2014).
“Also recorded” adds a separate entry of the source.

Assays:
[1] = tested on: c-kit in Kasumi-1 cells; experiment: Western blot analysis of c-Kit in Kasumi-1 cells; format: cell-based
Description: The results of the FACS analysis were confirmed with Western blot analysis (see FIG. 5). […] In contrast, 17-AAG had no effect of c-Kit protein levels.

[2] = tested on: c-kit in Kasumi-1 cells; experiment: FACS-based c-kit degradation assay in Kasumi-1 cells; format: cell-based; settings: about 18 h
Experimental: (§1) Two leukemia cell lines, HEL92.1.7 and Kasumi-1, were used for testing c-kit degradation induced by Hsp90 inhibitors of the invention. […] The cells were collected and centrifuged (SORVALL RT 6000D) at 1200 rpm for 5 min. The supernatants were discarded, and the cells were washed one time with 1×PBS. After centrifugation the cells were stained with FITC conjugated c-kit antibody (MBL International, Cat# K0105-4) in […] 1×PBS at 4° C. for 1 h. The samples were read and analysized with FACSCalibur flow cytometer (Becton Dicknson).

[3] = tested on: c-kit in HEL92.1.7 cells; experiment: FACS-based c-kit degradation assay in HEL92.1.7 cells; format: cell-based; settings: about 18 h
Experimental: as §1

[4] = tested on: RERF-LC-AI^IVP human lung tumor cells; experiment: RERF-LC-AI^IVP nude mouse xenograft model; format: in vivo; settings: for Growth rate of RERF-LC-AI^IVP tumors: 5 times per week, 15 doses
Experimental: The human squamous non-small cell lung cancer cell line, RERF-LC-AI (RCB0444; S. Kyoizumi, et al., Cancer. Res. 45:3274-3281, 1985), was obtained from the Riken Cell Bank (Tsukuba, Ibaraki, Japan). […] FBS was obtained from American Type Culture Collection (Manassas, Va., USA) and all other reagents were obtained from Invitrogen Corp. (Carlsbad, Calif., USA). Approximately 4−5×10(6) cells that had been cryopreserved in liquid nitrogen were rapidly thawed at 37° C. and transferred to a 175 cm^2 tissue culture flask containing 50 ml of growth media and then incubated at 37° C. in a 5% CO2 incubator.
The growth media was replaced every 2-3 days until the flask became 90% confluent, typically in 5-7 days. To passage and expand the cell line, a 90% confluent flask was washed with 10 ml of room temperature phosphate buffered saline (PBS) and the cells were disassociated by adding 5 ml 1× trypsin-EDTA (Invitrogen) and incubating at 37° C. until the cells detached from the surface of the flask. To inactivate the trypsin, 5 ml of growth media was added and then the contents of the flask were centrifuged to pellet the cells. The supernatant was aspirated and the cell pellet was resuspended in 10 ml of growth media and the cell number determined using a hemocytometer. Approximately 1-3×10(6) cells per flask were seeded into 175 cm^2 flasks containing 50 ml of growth media and incubated at 37° C. in a 5% CO2 incubator. When the flasks reached 90% confluence, the above passaging process was repeated until sufficient cells had been obtained for implantation into mice.
Seven to eight week old, female Crl:CD-1-nuBR (nude) mice were obtained from Charles River Laboratories (Wilmington, Mass., USA). Animals were housed 4-5/cage in micro-isolators, with a 12 hr/12 hr light/dark cycle, acclimated for at least 1 week prior to use and fed normal laboratory chow ad libitum. Studies were conducted on animals between 8 and 12 weeks of age at implantation. […] Using a 27 gauge needle and 1 cc syringe, 0.1 ml of the cell suspension was injected subcutaneously into the flank of each nude mouse. Tumor volumes (V) were calculated by caliper measurement of the width (W), length (L) and thickness (T) of tumors using the following formula: V=0.5236×(L×W×T).
In vivo passaged RERF-LC-AI tumor cells (RERF-LC-AI^IVP) were isolated to improve the rate of tumor implantation relative to the parental cell line in nude mice. RERF-LC-AI tumors were permitted to develop in vivo until they reached approximately 250 mm^3 in volume, which required approximately 3 weeks following implantation. Mice were euthanized via CO2 asphyxiation and their exteriors sterilized with 70% ethanol in a laminar flow hood. Using sterile technique, tumors were excised and diced in 50 ml PBS using a scalpel blade. […]

[5] = tested on: Her2, an Hsp90 client protein; experiment: Degradation of Her2 in BT-474 cells (Western blot); format: cell-based, Human; settings: overnight
Experimental: Human high-Her2 breast carcinoma BT474 (HTB-20), SK-BR-3 (HTB-30) and MCF-7 breast carcinoma (HTB-22) from American Type Culture Collection, VA, USA were grown in Dulbecco's modified Eagle's medium with 4 mM L-glutamine and antibiotics (100 IU/ml penicillin and 100 ug/ml streptomycine; GibcoBRL). To obtain exponential cell growth, cells were trypsinized, counted and seeded at a cell density of 0.5×10^6 cells/ml regularly, every 3 days. All experiments were performed on day 1 after cell passage.
After treatment, each cytoplasmic sample was prepared from 1×10^6 cells by incubation of cell lysis buffer (#9803, cell Signaling Technology) on ice for 10 minutes. The resulting supernatant used as the cytosol fractions were dissolved with sample buffer for SDS-PAGE and run on a SDS-PAGE gel, blotted onto a nitrocellulose membrane by using semi-dry transfer. Non-specific binding to nitrocellulose was blocked with 5% skim milk in TBS with 0.5% Tween at room temperature for 1 hour, then probed with anti-Her2/ErB2 mAb (rabbit IgG, #2242, Cell Signaling) and anti-Tubulin (T9026, Sigma) as housekeeping control protein. HRP-conjugated goat anti-rabbit IgG (H+L) and HRP-conjugated horse anti-mouse IgG (H+L) were used as secondary Ab (#7074, #7076, Cell Signaling) and LumiGLO reagent, 20× Peroxide (#7003, Cell Signaling) was used for visualization.

[6] = tested on: human tumor cell line MDA-MB-435S; experiment: MDA-MB-435S nude mouse xenograft model; format: in vivo; settings: 300 mg/kg body weight IP, 5 times per week for 3 weeks
Experimental: FBS was obtained from Sigma-Aldrich Corp. (St. Louis, Mo., USA), and all other reagents were obtained from Invitrogen Corp. (Carlsbad, Calif., USA). Approximately 4−5×10(6) cells that had been cryopreserved in liquid nitrogen were rapidly thawed at 37° C. and transferred to a 175 cm^2 tissue culture flask containing 50 ml of growth media and then incubated at 37° C. in a 5% CO2 incubator. The growth media was replaced every 2-3 days until the flask became 90% confluent, typically in 5-7 days. To passage and expand the cell line, a 90% confluent flask was washed with 10 ml of room temperature phosphate buffered saline (PBS) and the cells were disassociated by adding 5 ml 1× Trypsin-EDTA (Invitrogen) and incubating at 37° C. until the cells detached from the surface of the flask. To inactivate the trypsin, 5 ml of growth media was added and then the contents of the flask were centrifuged to pellet the cells. The supernatant was aspirated and the cell pellet was resuspended in 10 ml of growth media and the cell number determined using a hemocytometer. […]
Six to eight week old, female Crl:CD-1-nuBR (nude) mice were obtained from Charles River Laboratories (Wilmington, Mass., USA). […] Tumor volumes (V) were calculated by caliper measurement of the width (W), length (L) and thickness (T) of tumors using the following formula: V=[…]×(L×W×T). […]

[7] = tested on: Hsp90 protein; experiment: Malachite Green assay of ATPase activity of Hsp90; format: biochemical; settings: 37° C., 4 hours
Experimental: Hsp90 protein was obtained from Stressgen (Cat#SPP-770). Assay buffer: 100 mM Tris-HCl, Ph7.4, 20 mM KCl, 6 mM MgCl2. […] Malachite green reagent was added to the reaction. […] The plate was read by an ELISA reader with an absorbance at 620 nm.

Row | Structure (SMILES) | c-kit degradation ([2]; 0.5 μM) | c-kit degradation ([3]; 0.5 μM) | Degradation of Her2 ([5]; 0.5 μM) | Degradation of Her2 ([5]; 2 μM) | Degradation of Her2 ([5]; 5 μM) | c-kit degradation ([2]; 0.05 μM) | c-kit degradation ([3]; 0.05 μM) | also measured
1 | C=CCNC1=C2C[C@@H](C)C[C@H](OC)[C@H](O)[C@@H](C)/C=C(\C)[C@H](OC(N)=O)[C@@H](OC)/C=C\C=C(/C)C(=O)NC(=CC1=O)C2=O [Compound 17-AAG, 17-allylamino-17-demethoxygeldanamycin, reference compound] | could not induce c-kit degradation | could not induce c-kit degradation |  |  |  |  |  | c-Kit protein levels (Western blot) ([1]; concentration not given): had no effect; Growth rate of RERF-LC-AI^IVP tumors ([4]; 75 mg/kg body weight i.p.): inhibited tumor growth; also recorded: decreased the growth rate; Maximum tolerated dose in nude mice ([4]; i.p., dosed at approximately the maximum tolerated dose): ~75 mg/kg body weight
2 | CCc1cc(-c2nnc(S)n2-c2cccc3ccccc23)c(O)cc1O [Compound 49, 3-(2,4-Dihydroxy-5-ethyl-phenyl)-4-(naphthalen-1-yl)-5-mercapto-[1,2,4] triazole] |  |  | partial degradated | complete degradation | complete degradation |  |  | Toxicity (effect on body weights) [6]: not associated with significant toxicity; Growth rate of MDA-MB-435S tumors ([6]; compared with 100 mg/kg 17-AAG): decreased the growth rate
3 | Oc1ccc(-c2nnc(S)n2-c2cccc3ccccc23)c(O)c1 [Compound 108, 3-(2,4-Dihydroxy-phenyl)-4-(naphthalen-1-yl)-5-mercapto-[1,2,4] triazole] |  |  | partially degradated | partially degradated | almost completely degraded |  |  | ATPase activity of Hsp90 ([7]; 4 μM): significant inhibition; ATPase activity of Hsp90 ([7]; 40 μM): even greater inhibition
4 | CCc1cc(-c2nnc(S)n2-c2ccc(OC)c3c2ccn3C(C)C)c(O)cc1O [Compound 188, 3-(2,4-Dihydroxy-5-ethyl-phenyl)-4-(1-isopropyl-7-methoxy-indol-4-yl)-5-mercapto-[1,2,4] triazole] | induced c-kit degradation | induced c-kit degradation |  |  |  | induced c-kit degradation | induced c-kit degradation | Growth rate of RERF-LC-AI^IVP tumors ([4]; 200 mg/kg body weight i.p.): inhibited tumor growth; also recorded: decreased the growth rate; Maximum tolerated dose in nude mice ([4]; mouse, in vivo, ip): ~200 mg/kg body weight
5 | CC(C)c1cc(-c2nnc(S)n2-c2ccc3c(ccn3C)c2)c(O)cc1O [Compound 221, 3-(2,4-dihydroxy-5-isopropyl-phenyl)-4-(N-methyl-indol-5-yl)-5-mercapto-[1,2,4] triazole] | induced c-kit degradation | induced c-kit degradation |  |  |  | induced c-kit degradation | induced c-kit degradation | c-Kit protein levels (Western blot) ([1]; 100 nM): induced the degradation of c-Kit; c-Kit protein levels (Western blot) ([1]; 400 nM): induced the degradation of c-Kit
